Drawing on US10308652B2, “Tricyclic heterocyclic compounds useful as inhibitors of TNF” (BRISTOL-MYERS SQUIBB COMPANY, priority 2015, dated 2019), this text covers IC50 for 24 molecules.

The target in the experiment is TNFα (Homo sapiens (Human), UniProt P01375). As to the kind of experiment: TNF induced HEK-Blue assay. The experiment is classed as cell-based. Particulars: TNFα 0.5 ng/ml; HEK-Blue-CD40L cells, NF-κB-driven secreted alkaline phosphatase reporter; 18 h. The protocol: TNF or CD40L-induced HEK-Blue Assay Test compounds serially diluted in DMSO were plated in an assay plate (Labcyte, Cat. #LP-0200) at final concentrations ranging from 0.004 μM to 25μM. TNFα (final concentration 0.5 ng/ml) or CD4OL (final concentration 30 ng/ml) in assay buffer [DMEM, 4.5 g/l glucose (Gibco, Cat. 21063-029), 10% FBS (Sigma, F4135), 1% Penicillin-Streptomycin (Gibco, Cat. 15140-122), 1% Anti-Anti (Gibco, Cat. 15240-112) and 2 mM L-glutamine (Gibco, Cat. 25030-081)] was then added to the assay plate. After a 30 minute pre-incubation at 37° C. and 5% CO2, HEK-Blue-CD40L cells (InvivoGen, Cat. Code hkb-cd40) containing a NF-κB-driven secreted alkaline phosphatase reporter gene were seeded into the assay plate at a density of 20,000 cells per well. This plate was then incubated for 18 h at 37° C. and 5% CO2. Secreted alkaline phosphatase expression was measured using QUANTI-Blue (InvivoGen, Cat. Code rep-qb1) according to manufacturer's specifications and the assay plate was read on a PerkinElmer Envision at 620 nm. Inhibition data for the test compound over a range of concentrations was plotted as percentage inhibition of the test compound (100%=maximum inhibition). IC50 values were determined after correcting for background [(sample read−mean of low control)/(mean of high control−mean of low control)] where by the low control is DMSO without stimulation and high control is DMSO with stimulation. The IC50 is defined as the concentration of test compound which produces 50% inhibition and was quantified using the 4 parameter logistic equation to fit the data.
Sequence of TNFα (P01375 77-233): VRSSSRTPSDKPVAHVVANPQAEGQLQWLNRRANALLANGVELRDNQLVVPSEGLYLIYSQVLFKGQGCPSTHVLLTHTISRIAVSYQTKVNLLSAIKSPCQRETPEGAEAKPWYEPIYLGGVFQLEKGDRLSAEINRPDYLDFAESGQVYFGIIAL
One may read the IC50 as the concentration that gives 50% inhibition. A higher IC50 goes with lower potency. Turning to `CC(C)(O)c1ccc(-c2ccc3nc4c(n3n2)C(c2ccccc2OC(F)(F)F)NCC4O)cc1` (stereo not drawn) [Example 26, 2-(4-(2-hydroxypropan-2-yl)phenyl)-9-(2-(trifluoromethoxy)phenyl)-6,7,8,9-tetrahydropyrido [4′,3′:4,5]imidazo[1,2-b]pyridazin-6-ol], the half-inhibitory concentration (IC50) is below 1 µM. The figure for `CC(C)(O)c1ccc(-c2ccc3nc4c(n3n2)[C@H](c2ccccc2OC(F)F)OC[C@H]4O)cc1` (racemic) [Example 57, Rac-(6S,9S)-9-(2-(difluoromethoxy)phenyl)-2-(4-(2-hydroxypropan-2-yl)phenyl)-7,9-dihydro-6H-pyrano[4′,3′:4,5]imidazo[1,2-b]pyridazin-6-ol] is 1 to 10 µM; for `O=C(O)CN1CCN(c2ncc(-c3ccc4nc5c(n4n3)C(c3ccccc3OC(F)F)NCC5O)cn2)CC1` (stereo not drawn) [Example 22, 2-(4-(5-(9-(2-(difluoromethoxy)phenyl)-6-hydroxy-6,7,8,9-tetrahydropyrido [4′,3′:4,5]imidazo[1,2-b]pyridazin-2-yl)pyrimidin-2-yl)piperazin-1-yl)acetic acid] it is 1 to 10 µM. Next, `COCCOc1ccc(-c2ccc3nc4c(n3n2)[C@@H](c2ccccc2OC(F)F)NC[C@H]4O)cc1` (racemic) [Example 34, (+/−)-cis-9-(2-(difluoromethoxy)phenyl)-2-(4-(2-methoxyethoxy)phenyl)-6,7,8,9-tetrahydropyrido[4′,3′:4,5]imidazo[1,2-b]pyridazin-6-ol]: 1 to 10 µM. Next, `O=C(NC1CC1)c1ccc(-c2ccc3nc4c(n3n2)C(c2ccccc2OC(F)F)NCC4O)cn1` (stereo not drawn) [Example 21, N-cyclopropyl-5-(9-(2-(difluoromethoxy)phenyl)-6-hydroxy-6,7,8,9-tetrahydropyrido[4′,3′:4,5]imidazo[1,2-b]pyridazin-2-yl)picolinamide]: 1 to 10 µM. In turn, `CC(C)Oc1ccc(-c2ccc3nc4c(n3n2)[C@@H](c2ccccc2OC(F)F)NC[C@H]4O)cc1` (racemic) [Example 32, (+/−)-cis-9-(2-(difluoromethoxy)phenyl)-2-(4-isopropoxyphenyl)-6,7,8,9-tetrahydropyrido[4′,3′:4,5]imidazo[1,2-b]pyridazin-6-ol] displayed an IC50 of 1 to 10 µM. `CC(C)(O)c1ccc(-c2ccc3nc4c(n3n2)C(c2ccccc2OC(F)F)OCC4)cc1` (stereo not drawn) [Example 62, 2-(4-(9-(2-(Difluoromethoxy)phenyl)-7,9-dihydro-6H-pyrano[4′,3′:4,5]imidazo[1,2-b]pyridazin-2-yl)phenyl)propan-2-ol]: the concentration for half-maximal inhibition (IC50) was below 1 µM. For the molecule `CCc1ccccc1[C@@H]1NC[C@@H](O)c2nc3ccc(-c4ccc(C(C)(C)O)cc4)nn3c21` (racemic) [Example 24, (+/−)-trans-9-(2-ethylphenyl)-2-(4-(2-hydroxypropan-2-yl)phenyl)-6,7,8,9-tetrahydropyrido[4′,3′:4,5]imidazo[1,2-b]pyridazin-6-ol], the IC50 is below 1 µM. The figure for `CC(C)(O)c1ccc(-c2ccc3nc4c(n3n2)[C@H](c2ccccc2OC(F)F)NC[C@H]4O)cc1` [Example 5, (+/−)-Cis and trans-9-(2-(difluoromethoxy)phenyl)-2-(4-(2-hydroxypropan-2-yl)phenyl)-6,7,8,9-tetrahydropyrido[4′,3′:4,5]imidazo[1,2-b]pyridazin-6-ol] is 1 to 10 µM; for “(+/−)-trans-9-(2-(difluoromethoxy)phenyl)-2-(4-(2-hydroxy-2-methylpropoxy)phenyl)-6,7,8,9-tetrahydropyrido[4′,3′:4,5]imidazo[1,2-b]pyridazin-6-ol [Example 52]” it is 1 to 10 µM. The figure for `NS(=O)(=O)c1ccc(-c2ccc3nc4c(n3n2)[C@@H](c2ccccc2OC(F)F)NC[C@H]4O)cc1` (racemic) [Example 46, (+/−)-cis-4-(9-(2-(difluoromethoxy)phenyl)-6-hydroxy-6,7,8,9-tetrahydropyrido[4′,3′:4,5]imidazo[1,2-b]pyridazin-2-yl)benzenesulfonamide] is 1 to 10 µM; for `CC(C)(O)c1ccc(-c2ccc3nc4c(n3n2)[C@H](c2ccccc2OC(F)F)OC[C@@H]4O)cc1` (relative stereo) [Example 58, Cis-9-(2-(difluoromethoxy)phenyl)-2-(4-(2-hydroxypropan-2-yl)phenyl)-6,9-dihydro-7H-pyrano[4′,3′:4,5]imidazo[1,2-b]pyridazin-6-ol] it is below 1 µM. The figure for `CS(=O)(=O)c1ccc(-c2ccc3nc4c(n3n2)[C@@H](c2ccccc2OC(F)F)NC[C@H]4O)cc1` (racemic) [Example 41, (+/−)-cis-9-(2-(difluoromethoxy)phenyl)-2-(4-(methylsulfonyl)phenyl)-6,7,8,9-tetrahydropyrido[4′,3′:4,5]imidazo[1,2-b]pyridazin-6-ol] is 1 to 10 µM; for `O[C@@H]1CN[C@H](c2ccccc2OC(F)F)c2c1nc1ccc(-c3ccc(C4(O)CC4)cc3)nn21` (racemic) [Example 36, (+/−)-cis-9-(2-(difluoromethoxy)phenyl)-2-(4-(1-hydroxycyclopropyl)phenyl)-6,7,8,9-tetrahydropyrido [4′,3′:4,5]imidazo[1,2-b]pyridazin-6-ol] it is 1 to 10 µM. In turn, `Cn1cc(-c2ccc3nc4c(n3n2)C(c2ccccc2OC(F)F)OCC4)cn1` (stereo not drawn) [Example 64, 9-(2-(Difluoromethoxy)phenyl)-2-(1-methyl-1H-pyrazol-4-yl)-7,9-dihydro-6H-pyrano[4′,3′:4,5]imidazo[1,2-b]pyridazine] had an IC50 of 1 to 10 µM.

For `CC(C)(O)c1ccc(-c2ccc3nc4c(n3n2)[C@@H](c2ccccc2OC(F)F)NC[C@H]4F)cc1` [Example 13, cis-(1R,4R)-2-(4-(9-(2-(difluoromethoxy)phenyl)-6-fluoro-6,7,8,9-tetrahydropyrido[4′,3′:4,5]imidazo[1,2-b]pyridazin-2-yl)phenyl)propan-2-ol], the IC50 was below 1 µM. Next, `CC(C)(O)c1ncc(-c2ccc3nc4c(n3n2)C(c2ccccc2OC(F)F)NCC4)cn1` (racemic) [Example 3, (+/−)-2-(5-(9-(2-(Difluoromethoxy)phenyl)-6,7,8,9-tetrahydropyrido[4′,3′:4,5]imidazo[1,2-b]pyridazin-2-yl)pyrimidin-2-yl)propan-2-ol]: 1 to 10 µM. The figure for `CC(C)(O)c1ccc(-c2ccc3nc4c(n3n2)[C@H](c2ccccc2OC(F)F)NC[C@H]4F)cc1` (racemic) [Example 9, (+/−)-trans-2-(4-(9-(2-(difluoromethoxy)phenyl)-6-fluoro-6,7,8,9-tetrahydropyrido[4′,3′:4,5]imidazo[1,2-b]pyridazin-2-yl)phenyl)propan-2-ol] is 1 to 10 µM; for `CC(C)(C)COc1ccc(-c2ccc3nc4c(n3n2)[C@@H](c2ccccc2OC(F)F)NC[C@H]4O)cc1` (racemic) [Example 42, (+/−)-cis-9-(2-(difluoromethoxy)phenyl)-2-(4-(neopentyloxy)phenyl)-6,7,8,9-tetrahydropyrido[4′,3′:4,5]imidazo[1,2-b]pyridazin-6-ol] it is below 1 µM; for `CCc1ccccc1[C@H]1NC[C@@H](O)c2nc3ccc(-c4ccc(C(C)(C)O)cc4)nn3c21` (racemic) [Example 25, (+/−)-cis-9-(2-ethylphenyl)-2-(4-(2-hydroxypropan-2-yl)phenyl)-6,7,8,9-tetrahydropyrido[4′,3′:4,5]imidazo[1,2-b]pyridazin-6-ol] it is 1 to 10 µM. Next, `CC(C)(O)c1ccc(-c2ccc3nc4c(n3n2)[C@@H](c2cc(Cl)ccc2OC(F)F)NC[C@H]4O)cc1` (racemic) [Example 54, (+/−)-cis-9-(5-chloro-2-(difluoromethoxy)phenyl)-2-(4-(2-hydroxypropan-2-yl)phenyl)-6,7,8,9-tetrahydropyrido[4′,3′:4,5]imidazo[1,2-b]pyridazin-6-ol]: 1 to 10 µM; `CC(C)(O)c1ccc(-c2ccc3nc4c(n3n2)[C@H](c2ccccc2OC(F)F)NC[C@H]4O)cc1` [Example 14, trans-(6R,9S)-9-(2-(difluoromethoxy)phenyl)-2-(4-(2-hydroxypropan-2-yl)phenyl)-6,7,8,9-tetrahydropyrido[4′,3′:4,5]imidazo[1,2-b]pyridazin-6-ol]: 1 to 10 µM. Turning to `COc1cc(F)ccc1[C@@H]1NC[C@@H](O)c2nc3ccc(-c4ccc(C(C)(C)O)cc4)nn3c21` (racemic) [Example 23, (+/−)-trans-9-(4-fluoro-2-methoxyphenyl)-2-(4-(2-hydroxypropan-2-yl)phenyl)-6,7,8,9-tetrahydropyrido[4′,3′:4,5]imidazo[1,2-b]pyridazin-6-ol], the IC50 was in the range of 1 to 10 µM.

Molecule `COc1ccc(-c2ccc3nc4c(n3n2)C(c2ccccc2OC(F)F)NCC4)cn1` (racemic) [Example 1, (+/−)-9-(2-(Difluoromethoxy)phenyl)-2-(6-methoxypyridin-3-yl)-6,7,8,9-tetrahydropyrido[4′,3′:4,5]imidazo[1,2-b]pyridazine] returned a concentration for half-maximal inhibition (IC50) below 1 µM.
